Patent US7879886B2, “Iron binding agents” (University of Florida Research Foundation, Inc., priority 1998, dated 2011)
Like-named read-outs stand apart in the source and are kept apart here.

Columns and labels:
[1] = Iron clearance efficiency in the normal (not iron-loaded) bile duct-cannulated Sprague-Dawley rat; assay type: in vivo
Description: (§1) One screen for efficacy is the normal (not iron-loaded) Sprague-Dawley rat with a cannulated bile duct. In this model, collection of bile and urine after oral or parenteral administration of a chelator permits the rapid determination of the magnitude and route(s) of excretion. The iron-loaded Cebus apella monkey is used as a better screen, however. To date, the behavior of iron chelators in this primate model has been-quantitatively predictive of both the magnitude and routes of iron clearance after human administration.
(§2) The primary measure of activity is the efficiency of the compound, as assessed in both rodent and primate models and compared with sc DFO. Compound efficiency is a comparative evaluation of how much iron excretion a chelator promotes relative to the theoretical amount. For example, the hexacoordinate chelator DFO forms 1:1 iron complexes with a formation constant of 3×10^30 M^−1 (Anderegg et al., Helv. Chim. Acta 46: 1409-1422 (1963)); if the efficiency were 100%, one mmol of DFO administered to an animal would cause one mmol of the iron complex to be excreted. In fact, only 5% of the calculated iron is excreted when DFO is administered to humans (Kirking et al., Clin. Pharmacol. 10:775-783 (1991)). In the case of the DFT analogues, the efficiency calculation is based on the formation of a 2:1 complex with a formation constant assumed to be similar to that of the parent compound, 4×10^29 M^−1 (Anderegg et al., J. Chem. Soc., Chem. Commun. 1194-1196 (1990).

[2] = Iron clearance efficiency in the iron-loaded Cebus apella monkey; assay type: in vivo
Description: as §1, §2

[3] = cited from earlier work
[4] = test system: malarial parasites; assay: Impact on malarial parasites in vitro (48 h exposure, 48 h after removal, percent parasitemia); assay type: cell-based, Plasmodium
Description: Studies can be done on the developmental stages and morphology of the malarial parasite in vitro; the minimum effective concentration required for cytotoxicity can be shown. The target structures include the nuclear envelope, the membrane of the food vacuole, accumulation of electron-dense substances in the mitochondria, undigested materials, and dilation of the endoplasmic reticulum.
In order to determine the concentration at which a compound is cytostatic and cytotoxic, the parasites are exposed to the drug using at least two different concentrations. After 48 h the chelator is removed, and the parasites are incubated for an additional 48 h. The percent parasitemia is determined at both time points (48 and 96 h). The effects of the various compounds on malarial parasites seem quite varied. For the purposes of comparison, DFO can serve as the positive control. […] However, at a concentration of 10^−4 M, DFO is cytotoxic; the plasmodia die during the 48-h incubation with the compound.
The compounds designated as 8 and 22 in Table I are active in this in vitro assay. Others can be similarly tested.

[5] = administered to humans; cited from earlier work

| Compound | % Efficiency of Iron Clearance ([1]; route not given) | % Efficiency of Iron Clearance ([1]; po) | % Efficiency of Iron Clearance ([1]; sc) | % Efficiency of Iron Clearance ([2]; 150 μmol/kg po) [%] | % Efficiency of Iron Clearance ([2]; 300 μmol/kg po) | also measured |
| --- | --- | --- | --- | --- | --- | --- |
| O=C(O)CC[C@H]1CSC(c2ccccc2O)=N1 [17(S), (S)-4,5-dihydro-2-(2-hydroxyphenyl)-4-thiazolepropanoic acid] | ≦0.5% |  |  |  |  |  |
| COc1cccc(C2=N[C@@H](C(=O)O)CS2)c1O [6(S), (S)-4,5-dihydro-2-(2-hydroxy-3-methoxyphenyl)-4-thiazolecarboxylic acid] |  | 0.9 ± 0.3 (po) % | 0.5 ± 0.9 (sc) % |  |  |  |
| O=C(O)[C@H]1CSC(c2ncccc2O)=N1 [2(S), (S)-desmethyldesferrithiocin] |  | 2.4 ± 0.56 (po) % | 1.8 ± 0.7 (sc) % | 4.8 ± 2.7 | 8.0 ± 2.5% | % Efficiency of Iron Clearance ([2]; 300 μmol/kg sc): 8.3 ± 2.7% |
| C[C@]1(C(=O)O)CSC(c2ccccc2O)=N1 [9(S)] |  | 2.7 ± 0.5 (po) % |  |  | 13.1 ± 4% | % Efficiency of Iron Clearance ([2]; 75 μmol/kg po): 21.5 ± 12%; % Efficiency of Iron Clearance ([2]; 300 μmol/kg sc): 43.3 ± 8.5% |
| C[C@]1(C(=O)O)CSC(c2ncccc2O)=N1 [1(S), desferrithiocin, reference compound] | 5.5 ± 3.2% |  |  | 16.1 ± 8.5 |  | Formation constant of iron complex ([3]; 2:1 complex): 4e+29 M⁻¹ |
| O=C(O)c1ccc(C2=N[C@@H](C(=O)O)CS2)c(O)c1 [7(S), (S)-4,5-Dihydro-2-(2-hydroxy-4-carboxyphenyl)-4-thiazolecarboxylic acid] | ≦0.5% |  |  |  |  |  |
| Oc1cccnc1C1=N[C@@H](N(O)CCOCCOCCN(O)[C@H]2CSC(c3ncccc3O)=N2)CS1 [Compound 25, (S,S)-N^1,N^8-bis[4,5-dihydro-2-(3-hydroxy-2-pyridinyl)-4-thiazoyl]-N^1,N^8-dihydroxy-3,6-dioxa-1,8-octanediamine] |  | 4.6 ± 2.1 (po) % | 20.6 ± 1.3 (sc) % |  |  |  |
| O=C(O)C1CSC(c2ccc(O)cc2O)=N1 [5(S), 4,5-Dihydro-2-(2-,4-dihydroxyphenyl)-4-thiazolecarboxylic acid] |  | 2.4 ± 0.9 (po) % |  | 4.2 ± 1.4 | 5.3 ± 1.7% | % Efficiency of Iron Clearance ([2]; 150 μmol/kg in H2O sc): 5.6 ± 0.9%; % Efficiency of Iron Clearance ([2]; 300 μmol/kg in H2O po): 4.8 ± 1.4% |
| O=C(O)C1CSC(c2ccc(O)cc2O)=N1 [5(R), 4,5-Dihydro-2-(2-,4-dihydroxyphenyl)-4-thiazolecarboxylic acid] | ≦0.5% |  |  | 1.7 ± 0.8 |  |  |
| O=C(C1CSC(c2ncccc2O)=N1)N(O)Cc1ccccc1 (stereo not shown) [Compound 24] |  | 1 ± 0.1 (po) % | 1.4 ± 0.8 (sc) % |  | ≦0.5% | % Efficiency of Iron Clearance ([2]; 300 μmol/kg sc): ≦0.5% |
| CN(O)C(=O)[C@H]1CSC(c2ncccc2O)=N1 [Compound 22, (S)-desmethyldesferrithiocin, N-methylhydroxamate] |  | 3.1 ± 0.4 (po) % | 5.3 ± 0.7 (sc) % | 6.9 ± 3.0 | 13.2 ± 7.7% | % Efficiency of Iron Clearance ([2]; 150 μmol/kg sc): 11.7 ± 5.5%; Activity in the in vitro malarial parasite assay [4]: active |
| O=C(O)[C@H]1CSC(Cc2ccccc2O)=N1 [15(S), (S)-4,5-Dihydro-2-(2-hydroxyphenylmethyl)-4-thiazolecarboxylic acid] | ≦0.5% |  |  |  |  |  |
| O=C(O)C1CCSC(c2ncccc2O)=N1 [14(S), 2-(3-hydroxy-2-pyridinyl)4H-5,6-dihydro-1,3-thiazine-4-carboxylic acid] | ≦0.5% |  |  |  |  |  |
| O=C(O)C[C@H]1CSC(c2ccccc2O)=N1 [16(S), (S)-4,5-Dihydro-2-(2-hydroxyphenyl)-4-thiazoleacetic acid] | ≦0.5% |  |  |  |  |  |
| C[C@]1(C(=O)O)CSC(c2ccc(O)cc2O)=N1 [28(S), 4′-hydroxydesazaDFT] | ≦0.5% |  |  | 13.4 ± 5.8 |  | % Efficiency of Iron Clearance ([2]; 75 μmol/kg po): 17.7 ± 3.9% |
| CC(=O)N(O)CCCCCNC(=O)CCC(=O)N(O)CCCCCNC(=O)CCC(=O)N(O)CCCCCN [DFO] |  |  |  |  |  | Formation constant of iron complex ([3]; 1:1 iron complex): 3e+30 M⁻¹; Effect on plasmodia ([4]; 48-h incubation at 10^−4 M): cytotoxic; Malarial growth after the compound is removed ([4]; after 48-h exposure at 10^−5 M, compound removed): normal growth resumes; Effect on malarial growth ([4]; initial 48-h continuous exposure at 10^−5 M): inhibits malarial growth; Efficiency: calculated iron excreted [5]: 5% |
